Source: the supplement of paper PMC7021759
± gives the standard deviation of the averaged measurements.

Test system: SK-N-MM (SKNMM-MYCN, doxycycline-inducible MYCN)
Assay: area under dose-response curve (CellTiter-Glo viability normalised to plate controls) (AUC (arbitrary units)); higher = more loss of viability; extreme values may be limits of the assay
In short: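 Compounds were pin-transferred as 10-point 1:3 dilution series (890-fold stock dilution) onto SK-N-MM cells with doxycycline-inducible MYCN, plated at 1250 cells/100 μL in 96-well plates and switched about 24 h after plating to medium with or without doxycycline two days before dosing. Dosing was repeated on day 4, and CellTiter-Glo luminescence was read 3 or 8 days after drugging. Area under the dose-response curve came from log2 signals normalised to the positive and negative controls on each plate.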

[1] = MYCN induction (doxycycline): +doxycycline (MYCN induced), time after drugging: 3 days
[2] = MYCN induction (doxycycline): +doxycycline (MYCN induced), time after drugging: 8 days
[3] = MYCN induction (doxycycline): no doxycycline (MYCN not induced), time after drugging: 3 days
[4] = MYCN induction (doxycycline): no doxycycline (MYCN not induced), time after drugging: 8 days

Structure (SMILES) | area under dose-response curve [1] | area under dose-response curve [2] | area under dose-response curve [3] | area under dose-response curve [4]
CC(=O)Nc1cccc(-n2c(=O)n(C3CC3)c(=O)c3c(Nc4ccc(I)cc4F)n(C)c(=O)c(C)c32)c1 [TRAMETINIB] | 54.2 | 206 | 42.4 | 152
Cc1ccc(Nc2nccc(N(C)c3ccc4c(C)n(C)nc4c3)n2)cc1S(N)(=O)=O [PAZOPANIB] | 21.1 | 40.1 | 18.1 | 29.2
Nc1nc2[nH]cnc2c(=S)[nH]1 [THIOGUANINE] | 26.6 | 54.3 | 10.2 | 21.2
Cc1cc(Nc2ccc(NC(=O)c3ccc(Nc4ccnc5ccccc45)cc3)cc2)nc(N)n1 [SGI-1027] | 80.5 | 201 | 26.5 | 105
Cc1c(-c2c(-c3ccc(F)o3)sc3ncnc(O[C@H](Cc4ccccc4OCc4ccnn4CC(F)(F)F)C(=O)O)c23)ccc(OCCN2CCN(C)CC2)c1Cl | – | 7.67 | – | –
Nc1nc(F)nc2c1ncn2[C@@H]1O[C@H](COP(=O)(O)O)[C@@H](O)[C@@H]1O [FLUDARABINE PHOSPHATE] | 0 | 0 | 0 | 57.1
Cc1oncc1C(=O)Nc1ccc(C(F)(F)F)cc1 [LEFLUNOMIDE] | 0 | 5.53 | 0 | 16.7
CN1CCC(CNc2ccc3ncc(-c4cccc(OC(F)(F)F)c4)n3n2)CC1 [SGI-1776] | – | 144 | – | 138
CO[C@H]1C[C@@H]2CC[C@@H](C)[C@@](O)(O2)C(=O)C(=O)N2CCCC[C@H]2C(=O)O[C@H]([C@H](C)C[C@@H]2CC[C@@H](OCCO)[C@H](OC)C2)CC(=O)[C@H](C)/C=C(\C)[C@@H](O)[C@@H](OC)C(=O)[C@H](C)C[C@H](C)/C=C/C=C/C=C/1C [EVEROLIMUS] | 19.6 | 0 | 37.3 | 21.4
CN(C)C(=O)c1cc2cnc(Nc3ccc(N4CCNCC4)cn3)nc2n1C1CCCC1 [RIBOCICLIB] | 7.07e-05 | 12.9 | 0 | 15.9
CC(C)C[C@H](NC(=O)[C@H](CCc1ccccc1)NC(=O)CN1CCOCC1)C(=O)N[C@@H](Cc1ccccc1)C(=O)N[C@@H](CC(C)C)C(=O)[C@@]1(C)CO1 [CARFILZOMIB] | 295 | 404 | 286 | 398
C=C1C[C@@H]2CC[C@@]34C[C@H]5O[C@H]6[C@@H](O3)[C@H]3O[C@H](CC[C@@H]3O[C@H]6[C@H]5O4)CC(=O)C[C@@H]3[C@@H](OC)[C@@H](C[C@H](O)CN)O[C@H]3C[C@H]3O[C@@H](CC[C@@H]1O2)C[C@@H](C)C3=C [ERIBULIN] | 0 | 0.398 | 0 | 52.7
CC1(C)CCC(CN2CCN(c3ccc(C(=O)NS(=O)(=O)c4ccc(NCC5CCOCC5)c([N+](=O)[O-])c4)c(Oc4cnc5[nH]ccc5c4)c3)CC2)=C(c2ccc(Cl)cc2)C1 [VENETOCLAX] | – | 2.61 ± 3.7 | 0 | 0
Cn1ncnc1[C@H]1c2n[nH]c(=O)c3cc(F)cc(c23)N[C@@H]1c1ccc(F)cc1 [TALAZOPARIB] | 48.2 ± 12 | 183 ± 40 | 29.3 ± 20 | 78.2 ± 25
COc1cc2c(cc1-c1c(C)noc1C)ncc1[nH]c(=O)n([C@H](C)c3ccccn3)c12 [I-BET151] | 10.5 | 46.3 | 14.6 | 36.3
N#CN=C(NCCCCCCOc1ccc(Cl)cc1)Nc1ccncc1 [GMX-1778] | 172 | 348 | 119 | 338
Clc1ccc(NN=C(c2ccccc2)c2ccccn2)nc1 [JIB-04] | 33.4 | 152 | 17.8 | 37.1
CCOc1cc2ncc(C#N)c(Nc3ccc(OCc4ccccn4)c(Cl)c3)c2cc1NC(=O)/C=C/CN(C)C [NERATINIB] | 106 | 154 | 98.3 | 151
CNC(=O)c1cc(Oc2ccc(NC(=O)Nc3ccc(Cl)c(C(F)(F)F)c3)cc2)ccn1 [SORAFENIB] | 0 | 0 | 0 | 0

Structure (SMILES) | area under dose-response curve [1] | area under dose-response curve [2] | area under dose-response curve [3] | area under dose-response curve [4]
CCOC(=O)CCNc1cc(N2CCc3ccccc3CC2)nc(-c2ccccn2)n1 [GSK-J4] | 0.00103 | 188 | 61.4 | 150
CC(C)(C#N)c1cc(Cn2cncn2)cc(C(C)(C)C#N)c1 [ANASTROZOLE] | 4.86 | 89.8 | 0 | 77.4
O=P1(N(CCCl)CCCl)NCCCO1 (configuration not stated) [CYCLOPHOSPHAMIDE] | 0 | 0 | 0 | –
CS(=O)(=O)CCNCc1ccc(-c2ccc3ncnc(Nc4ccc(OCc5cccc(F)c5)c(Cl)c4)c3c2)o1 [LAPATINIB] | 0 | 0 | 0 | 0
COc1c(C)c2c(c(O)c1C/C=C(\C)CCC(=O)OCCN1CCOCC1)C(=O)OC2 [MYCOPHENOLATE MOFETIL] | 43.8 | 115 | 25.9 | 51.4
O=c1[nH]c(=O)n([C@H]2C[C@H](O)[C@@H](CO)O2)cc1/C=C/Br [BRIVUDINE] | 0.716 | 11.1 | 0 | 0.883
COc1cc2ncnc(Nc3ccc(F)c(Cl)c3)c2cc1OCCCN1CCOCC1 [GEFITINIB] | 80.1 | 0 | 93.7 | 93.8
C=CCn1c(=O)c2cnc(Nc3ccc(N4CCN(C)CC4)cc3)nc2n1-c1cccc(C(C)(C)O)n1 [MK-1775] | 105 ± 20 | 159 ± 26 | 42.5 ± 14 | 98.1 ± 4.8
CCN(CC)CCCC(C)Nc1c2ccc(Cl)cc2nc2ccc(OC)cc12 (configuration not stated) [QUINACRINE] | 2.07 | 146 | 0 | 149
CN(Cc1cnc2nc(N)nc(N)c2n1)c1ccc(C(=O)N[C@@H](CCC(=O)O)C(=O)O)cc1 [METHOTREXATE] | 3.6 | 18.6 | 0.0478 | –
O=P1(NCCCl)OCCCN1CCCl (configuration not stated) [IFOSFAMIDE] | 0 | 0 | 0 | –
COc1cc(Nc2c(C#N)cnc3cc(OCCCN4CCN(C)CC4)c(OC)cc23)c(Cl)cc1Cl [BOSUTINIB] | 0.583 | 0.0371 | 0.885 | 0.202
O=C(CCCCCCC(=O)Nc1ccccc1)NO [VORINOSTAT] | 78.4 | 191 | 58.2 | 145
Nc1nc2[nH]cc(CCc3ccc(C(=O)N[C@@H](CCC(=O)O)C(=O)O)cc3)c2c(=O)[nH]1 [PEMETREXED] | 6.04 | 112 | 0 | 58.3
CC(C)n1c(/C=C/C(O)CC(O)CC(=O)O)c(-c2ccc(F)cc2)c2ccccc21 (configuration not stated) [FLUVASTATIN] | 2.15 | 11 | 0 | 4.98
O=C(Nc1ccccc1-c1cn2c(CN3CCNCC3)csc2n1)c1cnc2ccccc2n1 [SRT1720] | 187 | 220 | 0.00298 | 213
CC(=O)O[C@@H](C)/C=C\C(=O)N[C@@H]1C[C@H](C)[C@H](C/C=C(C)/C=C/[C@H]2O[C@](C)(O)C[C@@]3(CO3)[C@@H]2O)O[C@@H]1C | 13.5 | 33.2 | – | 28.1
C1=N/C2=N/c3ccc(OCCN4CCCC4)c(c3)COC/C=C/COCc3cccc(c3)C(=C1)N2 [PACRITINIB] | 170 | 176 | 165 | 198
CC[C@@H]1C(=O)N(C)c2cnc(Nc3ccc(C(=O)NC4CCN(C)CC4)cc3OC)nc2N1C1CCCC1 [BI-2536] | 85.3 | 213 | 65.4 | 92.1
